Test results from patent publication US20020137929A1, “1 - (3-heterocyclylphenyl) isothiourea, -isourea, -guanidine and -amidine herbicidal agents” (Intellectual Property Department, BASF Aktiengesellschaft, priority 1998, published 2002).

Columns and labels:
AMBEL (Ragweed, Common) [1] = assay: Postemergence herbicidal evaluation; format: in vivo, Ambrosia artemisifolia; conditions: postemergence
Procedure, shortened: (§1)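 Two-week-old seedlings sprayed with compound in 50/50 acetone/water plus 0.5% TWEEN 20, at about 0.0156 to 0.500 kg/ha, nozzle at 40 psi. Kept in greenhouse; rated visually 4-5 weeks after treatment on a 0-9 scale versus control, repeat tests averaged.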

[2] = tested on: SAGPY (Arrowhead (Pygmaea)); assay: Preemergence weed control under flooded paddy conditions; format: in vivo, Sagittaria pygmaea; conditions: rated 3-4 weeks after treatment
Procedure, shortened: (§2)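 Using flooded silt loam (water 1.5 to 3 cm deep), seeds sown in the top 0.5 cm were exposed preemergence to compound pipetted into the flood at about 0.0313 to 0.500 kg/ha. Effects were scored 0-9 by eye three to four weeks later.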

[3] = tested on: IPOHE (Morningglory, Ivyleaf); assay: Postemergence herbicidal evaluation; format: in vivo, Ipomoea hederacea; conditions: postemergence
Procedure, shortened: as §1

ABUTH (Velvetleaf) = assay: Preemergence herbicidal evaluation; format: in vivo, Abutilon theophrasti; conditions: rated 4-5 weeks after treatment
Procedure, shortened: (§3)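 Preemergence soil application of compound, sprayed in aqueous acetone at rates equivalent to about 0.0156 to 0.500 kg per hectare onto freshly sown cups. Plant response was judged by eye on a 0-9 scale four to five weeks later.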

ORYSAT (Rice, Tebonnet) = assay: Preemergence herbicidal evaluation; format: in vivo, Oryza sativa, (L.) Tebonnet; conditions: rated 4-5 weeks after treatment
Procedure, shortened: as §3

[4] = tested on: CHEAL (Lambsquarters, Common); assay: Preemergence herbicidal evaluation; format: in vivo, Chenopodium album; conditions: rated 4-5 weeks after treatment
Procedure, shortened: as §3

CASOB (Sicklepod) [5] = assay: Preemergence herbicidal evaluation; format: in vivo, Cassia obtusifolia; conditions: rated 4-5 weeks after treatment
Procedure, shortened: as §3

CASOB (Sicklepod) [6] = assay: Postemergence herbicidal evaluation; format: in vivo, Cassia obtusifolia; conditions: postemergence
Procedure, shortened: as §1

[7] = tested on: GLXMAW (Soybean, Williams); assay: Preemergence herbicidal evaluation; format: in vivo, Glycine max, (L.) Merr. cv Williams; conditions: rated 4-5 weeks after treatment
Procedure, shortened: as §3

[8] = tested on: IPOHE (Morningglory, Ivyleaf); assay: Preemergence herbicidal evaluation; format: in vivo, Ipomoea hederacea; conditions: rated 4-5 weeks after treatment
Procedure, shortened: as §3

[9] = tested on: CHEAL (Lambsquarters, Common); assay: Postemergence herbicidal evaluation; format: in vivo, Chenopodium album; conditions: postemergence
Procedure, shortened: as §1

AMBEL (Ragweed, Common) [10] = assay: Preemergence herbicidal evaluation; format: in vivo, Ambrosia artemisifolia; conditions: rated 4-5 weeks after treatment
Procedure, shortened: as §3

[11] = tested on: GLXMAW (Soybean, Williams); assay: Postemergence herbicidal evaluation; format: in vivo, Glycine max, (L.) Merr. cv Williams; conditions: postemergence
Procedure, shortened: as §1

MOOVA (Monochoria) = assay: Preemergence weed control under flooded paddy conditions; format: in vivo, Monochoria vaginalis; conditions: rated 3-4 weeks after treatment
Procedure, shortened: as §2

[12] = tested on: TRZAWR (Wheat, Winter, cv Riband); assay: Postemergence herbicidal evaluation; format: in vivo, Triticum aestivum; conditions: postemergence
Procedure, shortened: as §1

ECHCG (Barnyardgrass) = assay: Postemergence herbicidal evaluation; format: in vivo, Echinochloa crus-galli; conditions: postemergence
Procedure, shortened: as §1

Cn1c(C(F)(F)F)cc(=O)n(-c2cc(N=C3SCC(=O)N3CC(=O)OCC3CCCCC3)c(Cl)cc2F)c1=O [Compound 123, Cyclohexylmethyl 2-{{2-chloro-5-[3,6-dihydro-3-methyl-2,6-dioxo-4-(trifluoromethyl)-1(2H)-pyrimidinyl]-4-fluorophenyl}imino}-4-oxo-3-thiazolidineacetate] was tested, and the “Herbicidal rating AMBEL” value (AMBEL (Ragweed, Common) [1]; rate 0.0156 kg/ha) was 9.0, the “Herbicidal rating AMBEL” value (AMBEL (Ragweed, Common) [1]; rate 0.0313 kg/ha) was 9.0 and the “Herbicidal rating AMBEL” value (AMBEL (Ragweed, Common) [1]; rate 0.0625 kg/ha) was 9.0. For the same molecule, the “Herbicidal rating AMBEL” value (AMBEL (Ragweed, Common) [1]; rate 0.1250 kg/ha) was 9.0, the “herbicidal effect rating, SAGPY” value ([2]; 0.0313 kg/ha) was 5.0 and the “herbicidal effect rating, SAGPY” value ([2]; 0.0625 kg/ha) was 6.0. For the same molecule, the “herbicidal effect rating, SAGPY” value ([2]; 0.1250 kg/ha) was 6.0, the “herbicidal effect rating, SAGPY” value ([2]; 0.2500 kg/ha) was 8.0 and the “Herbicidal rating IPOHE” value ([3]; rate 0.0156 kg/ha) was 9.0. The “Herbicidal rating IPOHE” value ([3]; rate 0.0313 kg/ha) was 9.0, the “Herbicidal rating IPOHE” value ([3]; rate 0.0625 kg/ha) was 9.0 and the “Herbicidal rating IPOHE” value ([3]; rate 0.1250 kg/ha) was 9.0. The “Preemergence herbicidal rating ABUTH” value (ABUTH (Velvetleaf); rate 0.0156 kg/ha) was 9.0, the “Preemergence herbicidal rating ABUTH” value (ABUTH (Velvetleaf); rate 0.0313 kg/ha) was 9.0 and the “Preemergence herbicidal rating ABUTH” value (ABUTH (Velvetleaf); rate 0.0625 kg/ha) was 9.0. The “Preemergence herbicidal rating ABUTH” value (ABUTH (Velvetleaf); rate 0.1250 kg/ha) was 9.0, the “Preemergence herbicidal rating ABUTH” value (ABUTH (Velvetleaf); rate 0.2500 kg/ha) was 9.0 and the “Preemergence herbicidal rating ABUTH” value (ABUTH (Velvetleaf); rate 0.5000 kg/ha) was 9.0. The “Preemergence herbicidal rating ORYSAT” value (ORYSAT (Rice, Tebonnet); rate 0.0156 kg/ha) was 0.0, the “Preemergence herbicidal rating ORYSAT” value (ORYSAT (Rice, Tebonnet); rate 0.0313 kg/ha) was 0.0 and the “Preemergence herbicidal rating ORYSAT” value (ORYSAT (Rice, Tebonnet); rate 0.0625 kg/ha) was 0.0. For the same molecule, the “Preemergence herbicidal rating ORYSAT” value (ORYSAT (Rice, Tebonnet); rate 0.1250 kg/ha) was 1.0, the “Preemergence herbicidal rating ORYSAT” value (ORYSAT (Rice, Tebonnet); rate 0.2500 kg/ha) was 3.0 and the “Preemergence herbicidal rating ORYSAT” value (ORYSAT (Rice, Tebonnet); rate 0.5000 kg/ha) was 5.0. For the same molecule, the “Preemergence herbicidal rating CHEAL” value ([4]; rate 0.0156 kg/ha) was 9.0, the “Preemergence herbicidal rating CHEAL” value ([4]; rate 0.0313 kg/ha) was 9.0 and the “Preemergence herbicidal rating CHEAL” value ([4]; rate 0.0625 kg/ha) was 9.0. The “Preemergence herbicidal rating CHEAL” value ([4]; rate 0.1250 kg/ha) was 9.0, the “Preemergence herbicidal rating CHEAL” value ([4]; rate 0.2500 kg/ha) was 9.0 and the “Preemergence herbicidal rating CHEAL” value ([4]; rate 0.5000 kg/ha) was 9.0. The “Preemergence herbicidal rating CASOB” value (CASOB (Sicklepod) [5]; rate 0.0156 kg/ha) was 0.0, the “Preemergence herbicidal rating CASOB” value (CASOB (Sicklepod) [5]; rate 0.0313 kg/ha) was 0.0 and the “Preemergence herbicidal rating CASOB” value (CASOB (Sicklepod) [5]; rate 0.0625 kg/ha) was 0.0. For the same molecule, the “Preemergence herbicidal rating CASOB” value (CASOB (Sicklepod) [5]; rate 0.1250 kg/ha) was 0.0, the “Preemergence herbicidal rating CASOB” value (CASOB (Sicklepod) [5]; rate 0.5000 kg/ha) was 3.0 and the “Herbicidal rating CASOB” value (CASOB (Sicklepod) [6]; rate 0.0156 kg/ha) was 3.0. For the same molecule, the “Herbicidal rating CASOB” value (CASOB (Sicklepod) [6]; rate 0.0313 kg/ha) was 3.0, the “Herbicidal rating CASOB” value (CASOB (Sicklepod) [6]; rate 0.0625 kg/ha) was 9.0 and the “Herbicidal rating CASOB” value (CASOB (Sicklepod) [6]; rate 0.1250 kg/ha) was 8.0. The “Preemergence herbicidal rating GLXMAW” value ([7]; rate 0.0156 kg/ha) was 0.0, the “Preemergence herbicidal rating GLXMAW” value ([7]; rate 0.0313 kg/ha) was 0.0 and the “Preemergence herbicidal rating GLXMAW” value ([7]; rate 0.0625 kg/ha) was 1.0. The “Preemergence herbicidal rating GLXMAW” value ([7]; rate 0.1250 kg/ha) was 4.0, the “Preemergence herbicidal rating GLXMAW” value ([7]; rate 0.2500 kg/ha) was 9.0 and the “Preemergence herbicidal rating GLXMAW” value ([7]; rate 0.5000 kg/ha) was 6.0. For the same molecule, the “Preemergence herbicidal rating IPOHE” value ([8]; rate 0.0156 kg/ha) was 0.0, the “Preemergence herbicidal rating IPOHE” value ([8]; rate 0.0313 kg/ha) was 0.0 and the “Preemergence herbicidal rating IPOHE” value ([8]; rate 0.0625 kg/ha) was 0.0. The “Preemergence herbicidal rating IPOHE” value ([8]; rate 0.1250 kg/ha) was 7.0, the “Preemergence herbicidal rating IPOHE” value ([8]; rate 0.2500 kg/ha) was 9.0 and the “Preemergence herbicidal rating IPOHE” value ([8]; rate 0.5000 kg/ha) was 9.0. The “Herbicidal rating CHEAL” value ([9]; rate 0.0156 kg/ha) was 9.0, the “Herbicidal rating CHEAL” value ([9]; rate 0.0313 kg/ha) was 9.0 and the “Herbicidal rating CHEAL” value ([9]; rate 0.0625 kg/ha) was 9.0. For the same molecule, the “Herbicidal rating CHEAL” value ([9]; rate 0.1250 kg/ha) was 9.0, the “Preemergence herbicidal rating AMBEL” value (AMBEL (Ragweed, Common) [10]; rate 0.0156 kg/ha) was 2.0 and the “Preemergence herbicidal rating AMBEL” value (AMBEL (Ragweed, Common) [10]; rate 0.0313 kg/ha) was 1.0. For the same molecule, the “Preemergence herbicidal rating AMBEL” value (AMBEL (Ragweed, Common) [10]; rate 0.0625 kg/ha) was 3.0, the “Preemergence herbicidal rating AMBEL” value (AMBEL (Ragweed, Common) [10]; rate 0.1250 kg/ha) was 4.0 and the “Preemergence herbicidal rating AMBEL” value (AMBEL (Ragweed, Common) [10]; rate 0.2500 kg/ha) was 9.0. The “Preemergence herbicidal rating AMBEL” value (AMBEL (Ragweed, Common) [10]; rate 0.5000 kg/ha) was 9.0, the “Herbicidal rating GLXMAW” value ([11]; rate 0.0156 kg/ha) was 6.5 and the “Herbicidal rating GLXMAW” value ([11]; rate 0.0313 kg/ha) was 6.5. For the same molecule, the “Herbicidal rating GLXMAW” value ([11]; rate 0.0625 kg/ha) was 8.0, the “Herbicidal rating GLXMAW” value ([11]; rate 0.1250 kg/ha) was 9.0 and the “herbicidal effect rating, MOOVA” value (MOOVA (Monochoria); 0.0313 kg/ha) was 6.0. The “herbicidal effect rating, MOOVA” value (MOOVA (Monochoria); 0.0625 kg/ha) was 7.0, the “herbicidal effect rating, MOOVA” value (MOOVA (Monochoria); 0.1250 kg/ha) was 9.0 and the “herbicidal effect rating, MOOVA” value (MOOVA (Monochoria); 0.2500 kg/ha) was 9.0. The “Herbicidal rating TRZAWR” value ([12]; rate 0.0156 kg/ha) was 4.0, the “Herbicidal rating TRZAWR” value ([12]; rate 0.0313 kg/ha) was 4.5 and the “Herbicidal rating TRZAWR” value ([12]; rate 0.0625 kg/ha) was 6.0. For the same molecule, the “Herbicidal rating TRZAWR” value ([12]; rate 0.1250 kg/ha) was 6.5, the “Herbicidal rating ECHCG” value (ECHCG (Barnyardgrass); rate 0.0156 kg/ha) was 5.0 and the “Herbicidal rating ECHCG” value (ECHCG (Barnyardgrass); rate 0.0313 kg/ha) was 5.0. For the same molecule, the “Herbicidal rating ECHCG” value (ECHCG (Barnyardgrass); rate 0.0625 kg/ha) was 7.0 and the “Herbicidal rating ECHCG” value (ECHCG (Barnyardgrass); rate 0.1250 kg/ha) was 9.0.
